Results as given in US12691092B2, “Method for reducing cutaneous skin scarring by pre-emptive priming and compounds and compositions for its implementation” (SOS SCIENCE OF SKIN LTD, priority 2020, dated 2026).

Key:
Type in all cases: in vivo, human
elastin = assay: Immunohistochemical analysis of elastin in scar biopsies
Method: A double-blind randomized placebo-controlled trial was conducted using a temporal punch-biopsy model. The punch biopsy and topical application methodology used in the study is illustrated in FIG. 1, namely showing pre-injury pre-emptive priming (7-days), pre-injury pre-emptive priming (3-days), day of injury (immediate application on day 0), post-injury (delayed 2 weeks post injury) including biopsy time points and time of topical applications. Each group applied both placebo and topical formulations twice daily for the duration of the study until week 8, with only the starting time point differing between groups Participants were split into 4 groups (n=10 in each group) in order to compare different modes (timings) of commencement of the topical application: • Group-1: Pre-emptive Priming (7-days): pre-injury • Group-2: Pre-emptive Priming (3-days): pre-injury • Group-3: Immediate (0-day): day-of-injury • Group-4: Delayed (14-days): post-injury Clinical quantitative devices were used to objectively monitor cutaneous healing at weekly intervals and punch biopsies were performed on day 0 (uninjured skin) and at weeks 4 and 8 for protein and gene expression analyses. In the trial, topical EGCG and a placebo topical were applied twice daily for the duration of the trial until week 8 with only the starting time points differing between groups. Clinical and experimental analysis involved use of non-invasive devices as well as protein and gene studies. Excisional skin biopsies in upper arms were evaluated weekly with multiple quantitative devices over an 8-week period. Immunohistochemical analyses, mRNA sequencing and QRT-PCR were performed on tissue biopsies. […] There was also a significant increase at week-4 in group-1 only by 12% with EGCG (P=0.01). Between group analysis indicated a significant difference at week-8 (p=0.001). The greatest differences were in group-1 compared to groups-3 by 20% (p=0.008) and group-4 by 20% (p=0.003) and in group-2 compared to group-4 by 17% (p=0.009).

Fc epsilon RI (FcεRI) = assay: Fc epsilon RI immunohistochemical marker in scar biopsies; conditions: week 4, all groups, p<0.01
Method: A double-blind randomized placebo-controlled trial was conducted using a temporal punch-biopsy model. The punch biopsy and topical application methodology used in the study is illustrated in FIG. 1, namely showing pre-injury pre-emptive priming (7-days), pre-injury pre-emptive priming (3-days), day of injury (immediate application on day 0), post-injury (delayed 2 weeks post injury) including biopsy time points and time of topical applications. Each group applied both placebo and topical formulations twice daily for the duration of the study until week 8, with only the starting time point differing between groups Participants were split into 4 groups (n=10 in each group) in order to compare different modes (timings) of commencement of the topical application: • Group-1: Pre-emptive Priming (7-days): pre-injury • Group-2: Pre-emptive Priming (3-days): pre-injury • Group-3: Immediate (0-day): day-of-injury • Group-4: Delayed (14-days): post-injury Clinical quantitative devices were used to objectively monitor cutaneous healing at weekly intervals and punch biopsies were performed on day 0 (uninjured skin) and at weeks 4 and 8 for protein and gene expression analyses. […] Excisional skin biopsies in upper arms were evaluated weekly with multiple quantitative devices over an 8-week period. […]

mast cells (MC) = assay: Mast cell identification by MCT, MCC and CKit immunohistochemical markers in scar biopsies (double-blind placebo-controlled punch-biopsy trial)
Method: A double-blind randomized placebo-controlled trial was conducted using a temporal punch-biopsy model. The punch biopsy and topical application methodology used in the study is illustrated in FIG. 1, namely showing pre-injury pre-emptive priming (7-days), pre-injury pre-emptive priming (3-days), day of injury (immediate application on day 0), post-injury (delayed 2 weeks post injury) including biopsy time points and time of topical applications. Each group applied both placebo and topical formulations twice daily for the duration of the study until week 8, with only the starting time point differing between groups Participants were split into 4 groups (n=10 in each group) in order to compare different modes (timings) of commencement of the topical application: • Group-1: Pre-emptive Priming (7-days): pre-injury • Group-2: Pre-emptive Priming (3-days): pre-injury • Group-3: Immediate (0-day): day-of-injury • Group-4: Delayed (14-days): post-injury Clinical quantitative devices were used to objectively monitor cutaneous healing at weekly intervals and punch biopsies were performed on day 0 (uninjured skin) and at weeks 4 and 8 for protein and gene expression analyses. In the trial, topical EGCG and a placebo topical were applied twice daily for the duration of the trial until week 8 with only the starting time points differing between groups. Clinical and experimental analysis involved use of non-invasive devices as well as protein and gene studies. Excisional skin biopsies in upper arms were evaluated weekly with multiple quantitative devices over an 8-week period. Immunohistochemical analyses, mRNA sequencing and QRT-PCR were performed on tissue biopsies. MC identification was performed using mast cell tryptase (MCT), mast cell chymase (MCC) and CKit markers. […] The percentage differences between the change in placebo and EGCG for group-1 compared to group-2 was 58% (p=0.002), group-3 was 53% (p=0.003) and group-4 was 52% (p=0.005). […] The greatest difference was in group-1 compared to group-3 by 26% (p=0.02) and group-4 by 27% (p=0.02). Subsequent QRT-PCR analysis further confirmed down-regulation of MCT and MCC (p<0.05) in EGCG-treated samples at week-4 in all groups. MCT, MCC and CKit quantitative measurements are expressed in mm^2.

[1] = primed uninjured skin prior to injury
[2] = weeks 4 and 8, all groups, p<0.01, topical twice daily

O=C(OC1Cc2c(O)cc(O)cc2OC1c1cc(O)c(O)c(O)c1)c1cc(O)c(O)c(O)c1 (single isomer, unassigned; (-)) [EGCG, (-)-epigallocatechin-3-gallate] was tested, and the “Elastin levels in primed uninjured skin” value (elastin; [1]) was “increases elastin levels”, the “Elastin (immunohistochemical) increase with EGCG” value (elastin; week 4, group-1 only, P=0.01) was 12% and the “Elastin (immunohistochemical), EGCG-treated samples compared to placebo” value (elastin; week 8, all groups, p<0.01) was “up-regulated”. The “Elastin: difference of group-2 compared to group-4” value (elastin; week 8, 3-day priming vs delayed, p=0.009) was 17%, the “Elastin: difference of group-1 compared to group-4” value (elastin; week 8, 7-day priming vs delayed, p=0.003) was 20% and the “Elastin: difference of group-1 compared to group-3” value (elastin; week 8, 7-day priming vs immediate, p=0.008) was 20%. The “FcεRI in EGCG-treated samples compared to placebo” value (Fc epsilon RI (FcεRI)) was “significant reduction”, the “Resident mast cell population in primed uninjured skin” value (mast cells (MC); [1]) was “reduces the resident mast cell population” and the “MCC: larger difference of group-2 than group-4” value (mast cells (MC); week 4, 3-day priming vs delayed, p=0.009) was 29%. For the same compound, the “MCT: percentage difference between the change in placebo and EGCG, group-1 compared to group-2” value (mast cells (MC); week 4, 7-day pre-injury priming vs 3-day priming, p=0.002) was 58%, the “MCT: percentage difference between the change in placebo and EGCG, group-1 compared to group-4” value (mast cells (MC); week 4, 7-day pre-injury priming vs delayed (14 days), p=0.005) was 52% and the “MCT: percentage difference between the change in placebo and EGCG, group-1 compared to group-3” value (mast cells (MC); week 4, 7-day pre-injury priming vs immediate (day 0), p=0.003) was 53%. The “MCC: greater difference of group-1 than group-4” value (mast cells (MC); week 4, 7-day priming vs delayed, p=0.001) was 41%, the “CKit: difference of group-1 compared to group-4” value (mast cells (MC); week 4, 7-day priming vs delayed, p=0.02) was 27% and the “MCC: greater difference of group-1 than group-3” value (mast cells (MC); week 4, 7-day priming vs immediate, p=0.01) was 29%. The “CKit: difference of group-1 compared to group-3” value (mast cells (MC); week 4, 7-day priming vs immediate, p=0.02) was 26%, the “CKit positive cells, EGCG-treated scars compared to placebo-treated scars” value (mast cells (MC); [2]) was “significantly fewer positive cells” and the “MCC positive cells, EGCG-treated scars compared to placebo-treated scars” value (mast cells (MC); [2]) was “significantly fewer positive cells”. The “MCT positive cells, EGCG-treated scars compared to placebo-treated scars” value (mast cells (MC); [2]) was “significantly fewer positive cells”.
